Measurements reported in patent US20110294729A1, “Novel Insulin Analogues” (Novo Nordisk A/S, priority 2008, published 2011).

Columns and labels:
[1] = according to WO 90/01038; cited from earlier work
[2] = tested on: insulin receptor A-isoform and B-isoform; details: cited from earlier work
human IR-B = target: T1, human IR-B (Homo sapiens, UniProt P06213); experiment: Insulin receptor binding assay (SPA, solubilised receptor), hIR-B
T1 construct: solubilized human IR (holoreceptor) semipurified by wheat germ agglutinin purification; made in house; host or cells: baby hamster kidney (BHK) cells, stably transfected (pZem vector)
T1 sequence (P06213 28-758 limits assumed): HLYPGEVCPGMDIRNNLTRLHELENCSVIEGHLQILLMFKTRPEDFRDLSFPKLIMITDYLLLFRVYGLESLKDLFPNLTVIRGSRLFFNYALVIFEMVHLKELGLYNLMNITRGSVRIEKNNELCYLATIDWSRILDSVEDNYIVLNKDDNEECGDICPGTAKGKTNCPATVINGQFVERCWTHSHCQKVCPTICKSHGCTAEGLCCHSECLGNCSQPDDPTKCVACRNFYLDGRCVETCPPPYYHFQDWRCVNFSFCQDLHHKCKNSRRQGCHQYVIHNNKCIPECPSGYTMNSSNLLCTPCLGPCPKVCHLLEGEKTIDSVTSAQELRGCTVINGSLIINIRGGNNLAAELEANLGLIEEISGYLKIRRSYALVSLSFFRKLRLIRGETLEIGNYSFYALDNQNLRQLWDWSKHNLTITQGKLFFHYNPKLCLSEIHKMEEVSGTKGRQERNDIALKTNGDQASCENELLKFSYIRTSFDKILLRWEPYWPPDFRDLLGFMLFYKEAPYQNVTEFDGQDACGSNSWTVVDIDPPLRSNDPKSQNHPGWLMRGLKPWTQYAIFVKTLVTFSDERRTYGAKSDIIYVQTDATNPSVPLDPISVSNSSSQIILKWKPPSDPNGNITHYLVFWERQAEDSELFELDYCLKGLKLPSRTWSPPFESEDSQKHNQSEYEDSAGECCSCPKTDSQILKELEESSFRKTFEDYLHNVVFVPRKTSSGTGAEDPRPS
T1 sequence (P06213 763-1382 partner limits assumed): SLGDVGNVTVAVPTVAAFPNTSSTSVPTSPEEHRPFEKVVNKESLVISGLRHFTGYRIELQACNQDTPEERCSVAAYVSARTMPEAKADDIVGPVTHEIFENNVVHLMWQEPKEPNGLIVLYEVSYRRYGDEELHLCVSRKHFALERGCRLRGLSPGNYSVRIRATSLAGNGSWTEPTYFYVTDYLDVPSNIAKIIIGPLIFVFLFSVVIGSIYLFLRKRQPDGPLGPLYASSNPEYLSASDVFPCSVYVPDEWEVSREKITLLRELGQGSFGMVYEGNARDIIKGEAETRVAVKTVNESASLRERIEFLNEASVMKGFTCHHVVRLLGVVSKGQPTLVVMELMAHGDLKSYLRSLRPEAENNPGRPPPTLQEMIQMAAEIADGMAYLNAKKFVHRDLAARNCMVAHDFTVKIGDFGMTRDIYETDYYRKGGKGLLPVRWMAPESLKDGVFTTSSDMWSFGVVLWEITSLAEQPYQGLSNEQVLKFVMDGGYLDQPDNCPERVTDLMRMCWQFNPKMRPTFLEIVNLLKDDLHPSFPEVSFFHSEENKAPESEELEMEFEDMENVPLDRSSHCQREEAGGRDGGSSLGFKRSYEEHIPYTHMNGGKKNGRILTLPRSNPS
Experimental: (§1) Competition binding experiments were performed in 96-well plates (polystyrene Optiplate-96, PerkinElmer) on an Eppendorf epMotion 5075 robot using solubilized human IR (holoreceptor) semipurified by wheat germ agglutinin purification from baby hamster kidney (BHK) cells, which were stably transfected with the pZem vector containing the human IR-A or IR-B insert.

human IR-A = target: T2, human IR-A (Homo sapiens, UniProt P06213); experiment: Insulin receptor binding assay (SPA, solubilised receptor), hIR-A; details: hIR-A affinity relative to human insulin; analogue directly in yeast supernatant; SPA competition with [125I]A14Tyr-labelled insulin
T2 construct: solubilized human IR (holoreceptor) semipurified by wheat germ agglutinin purification; made in house; host or cells: baby hamster kidney (BHK) cells, stably transfected (pZem vector)
T2 sequence (P06213 28-746 isoform P06213-2 limits assumed): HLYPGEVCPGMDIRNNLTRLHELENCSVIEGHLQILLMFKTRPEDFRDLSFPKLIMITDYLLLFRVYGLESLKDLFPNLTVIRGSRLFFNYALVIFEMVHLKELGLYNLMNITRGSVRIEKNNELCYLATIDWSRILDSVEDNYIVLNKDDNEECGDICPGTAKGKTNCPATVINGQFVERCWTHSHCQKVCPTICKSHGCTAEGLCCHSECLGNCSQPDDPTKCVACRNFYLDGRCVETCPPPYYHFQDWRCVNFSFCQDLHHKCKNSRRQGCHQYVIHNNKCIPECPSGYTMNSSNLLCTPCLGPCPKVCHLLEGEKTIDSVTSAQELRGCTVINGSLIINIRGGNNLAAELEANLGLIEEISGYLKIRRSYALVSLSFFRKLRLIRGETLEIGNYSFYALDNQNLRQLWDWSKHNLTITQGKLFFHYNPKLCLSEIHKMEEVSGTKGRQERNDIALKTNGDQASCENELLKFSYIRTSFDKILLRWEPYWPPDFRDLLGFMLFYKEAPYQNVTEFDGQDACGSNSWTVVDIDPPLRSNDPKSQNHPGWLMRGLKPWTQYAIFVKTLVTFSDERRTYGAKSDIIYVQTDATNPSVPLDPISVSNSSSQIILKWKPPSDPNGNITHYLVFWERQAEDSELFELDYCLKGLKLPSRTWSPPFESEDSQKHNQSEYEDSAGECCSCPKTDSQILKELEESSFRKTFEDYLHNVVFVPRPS
T2 sequence (P06213 763-1382 partner limits assumed): as the sequence (P06213 763-1382 partner limits assumed) above
Experimental: as §1

His^B25 human insulin
biological activity [1]: high biological activity

His^B25 human insulin B30 amide
biological activity [1]: high biological activity

His^B25, Asp^B28, desB30 human insulin
biological activity [1]: high biological activity

Human insulin
affinity for insulin receptor A-isoform versus B-isoform (in words) ([2]; EMBO Journal 9 (1990), 2409-13): slightly higher affinity for the insulin receptor A-isoform than for the B-isoform

IGF-II
affinity for IR-A versus IR-B ([2]; higher affinity for IR-A than for IR-B): 40-50 fold

[A8H, B25H, B27E, desB30] human insulin [Example 4]
Ratio B/A (human IR-B; Example 8 table, ratio of relative hIR-B affinity to relative hIR-A affinity): 2.1
hIR-B [% of HI] (%) (human IR-B; hIR-B affinity relative to human insulin, analogue directly in yeast supernatant, SPA competition with [125I]A14Tyr-labelled insulin): 140 ± 5 % of HI
hIR-A [% of HI] (human IR-A): 67 ± 3 % of HI
